In patent US11549142B2, “CETP inhibitors for therapeutic use” (Hoffmann-La Roche Inc., priority 2013, dated 2023):

Tested on: patients recently hospitalized for an Acute Coronary Syndrome (ACS)
Assay: dal-OUTCOMES phase III trial with pharmacogenomic (GWAS) analysis of cardiovascular events by ADCY9 genotype
Assay type: in vivo, human
Parameters: key to Predicted response: R: Responsive; PR: Partial Responsive; NR: Non Responsive
Description: The dalcetrapib mortality and morbidity trial (dal-OUTCOMES) was a double-blind, randomized, placebo-controlled, parallel group, multi-centre study in stable CHD patients recently hospitalized for acute coronary syndrome (ACS). The study was conducted to test the hypothesis that CETP inhibition will reduce the risk of recurrent cardiovascular events in patients with recent ACS by raising levels of HDL-C through CETP inhibition. Eligible patients entered a single-blind placebo run-in period of approximately 4 to 6 weeks to allow for patients to stabilize and for completion of planned revascularization procedures. At the end of the run-in period, eligible patients in stable condition were randomized in a 1:1 ratio to 600 mg of dalcetrapib or placebo on top of evidence-based medical care for ACS. Dalcetrapib is an inhibitor of cholesterol-ester transfer protein (CETP). […] The trial was interrupted in May 2012 by the DSMB on grounds of futility.
Dal-OUTCOMES trial (NC20971) was a double blind, randomized, placebo-controlled, parallel group, multi-center, phase III study to assess the safety and efficacy of the CETP inhibitor dalcetrapib in patients recently hospitalized for an Acute Coronary Syndrome (ACS). At time of the interim analysis the study included 15871 randomized patients, distributed over two treatment arms: placebo (7933 patients) and dalcetrapib (600 mg daily; 7938 patients). […] The dal-OUTCOMES study details can be found in G. Schwartz et al., N. Engl. J. Med. 367; 22, 2012.\
Whole genome analysis was performed in GLP-environment at the Beaulieu-Saucier Pharmacogenomics Centre. The Infinium® HumanOmni25Exome-8v1_A BeadChip (Illumina, San Diego, Calif.) including 2,567,845 genomic markers was used and processed according to the manufacturer's specifications. Approximately 200 ng of genomic DNA was whole-genome amplified, fragmented, and hybridized to locus-specific probes bound to the surface of each BeadChip. DNA was genotyped using a fluorescently labelled single base extension assay. BeadChips were scanned and analyzed using the Illumina® iScan Reader. Infinium® process controls were monitored and all results were within manufacturer's specifications. Scanned images were analyzed using Illumina's GenomeStudio® version 2011.1 with the GenTrain 2.0 cluster algorithm, using a No-Call threshold of 0.15, without manual cluster adjustment and using the manufacturer's Illumina® HumanOmni25Exome-8v1_A cluster file. […] Three genotyping files in PLINK format generated by GenomeStudio® were combined and transformed to binary PLINK format.
Genotyping completion rate for samples and SNPs was set to 98%. SNPs with genotyping plate bias (based on the 96 well plates used to dilute DNA samples) were flagged but not removed as the effect of genetic ancestry could not be excluded. Pairwise IBD was used to conduct close familial relationship checks. We flagged and removed all but one pair-member of related pairs and sample duplicates (IBS2*ratio>0.80) based on a selection of uncorrelated SNPs (r^2<0.1). The pairwise IBS matrix was used as a distance metric to identify cryptic relatedness among samples and sample outliers by multi-dimensional scaling (MDS). The first two MDS components of each subject were plotted including the genotypes of HapMap CEU, JPT-CHB, and YRI data (keeping only founder individuals). Outliers from the main Caucasian cluster were flagged and removed by k-nearest neighbour. (Supplementary FIG. 1) The scree plot and the cumulative explained variance were computed using the smartpca program of the EIGENSOFT suite (version 3.0). Options used were a numoutlieriter (maximum number of outlier removal iterations) of 0 (turned off) and altnormstyle (normalization formula) equal to NO. ^4 (Supplementary FIG. 2)
A statistical analysis plan was developed at the Beaulieu-Saucier Pharmacogenomics Centre and the final version approved prior to genotyping completion in October 2012. […]

**Q.** With `CCC(CC)CC1(C(=O)Nc2ccccc2SC(=O)C(C)C)CCCCC1` [dalcetrapib, thioisobutyric acid S-(2-{[1-(2-ethyl-butyl)-cyclohexanecarbonyl]-amino}-phenyl) ester] as the compound, how does the Predicted response (rs8061182 genotype AA) read?
**A.** R

**Q.** What about the “HR for time to events, dalcetrapib treatment arm versus placebo arm” value (rs8061182 genotype AG) of the same compound?
**A.** 0.99

**Q.** And the Predicted response (rs8061182 genotype AG)?
**A.** PR

**Q.** And the “HR for time to events, dalcetrapib treatment arm versus placebo arm” value (rs8061182 genotype GG)?
**A.** 1.55

**Q.** What about the Predicted response (rs8061182 genotype GG) of the same compound?
**A.** NR

**Q.** What about the “HR (95% CI) for time to events, dalcetrapib treatment arm only, genotype comparison” value (from here on “HR (95% CI) for time to events”) (rs11647828 AG vs AA) of the same compound?
**A.** 0.74 (0.6, 0.92)

**Q.** And the “HR (95% CI) for time to events” value (rs11647828 GG vs AA)?
**A.** 0.46 (0.33, 0.63)

**Q.** What about the “HR for time to events, dalcetrapib treatment arm versus placebo arm” value (rs11647828 genotype AA) of the same compound?
**A.** 1.33

**Q.** What about the Predicted response (rs11647828 genotype AA) of the same compound?
**A.** NR

**Q.** What about the “HR for time to events, dalcetrapib treatment arm versus placebo arm” value (rs11647828 genotype AG) of the same compound?
**A.** 0.97

**Q.** What about the Predicted response (rs11647828 genotype AG) of the same compound?
**A.** PR

**Q.** What about the “HR for time to events, dalcetrapib treatment arm versus placebo arm” value (rs11647828 genotype GG) of the same compound?
**A.** 0.61

**Q.** What about the Predicted response (rs11647828 genotype GG) of the same compound?
**A.** R

**Q.** What about the “HR (95% CI) for time to events” value (rs12595857 AG vs AA) of the same compound?
**A.** 0.7 (0.57, 0.87)

**Q.** And the “HR (95% CI) for time to events” value (rs12595857 GG vs AA)?
**A.** 0.45 (0.33, 0.62)

**Q.** And the “HR for time to events, dalcetrapib treatment arm versus placebo arm” value (rs12595857 genotype AA)?
**A.** 1.27

**Q.** What about the Predicted response (rs12595857 genotype AA) of the same compound?
**A.** NR

**Q.** And the “HR for time to events, dalcetrapib treatment arm versus placebo arm” value (rs12595857 genotype AG)?
**A.** 0.95

**Q.** What about the Predicted response (rs12595857 genotype AG) of the same compound?
**A.** PR

**Q.** What about the “HR for time to events, dalcetrapib treatment arm versus placebo arm” value (rs12595857 genotype GG) of the same compound?
**A.** 0.7

**Q.** And the Predicted response (rs12595857 genotype GG)?
**A.** R

**Q.** What about the “HR (95% CI) for time to events” value (rs12935810 AA vs GG) of the same compound?
**A.** 1.87 (1.42, 2.48)

**Q.** What about the “HR (95% CI) for time to events” value (rs12935810 GA vs GG) of the same compound?
**A.** 1.3 (1.02, 1.65)

**Q.** What about the “HR for time to events, dalcetrapib treatment arm versus placebo arm” value (rs12935810 genotype AA) of the same compound?
**A.** 1.28

**Q.** And the Predicted response (rs12935810 genotype AA)?
**A.** NR

**Q.** And the “HR for time to events, dalcetrapib treatment arm versus placebo arm” value (rs12935810 genotype GA)?
**A.** 1.03

**Q.** What about the Predicted response (rs12935810 genotype GA) of the same compound?
**A.** NR

**Q.** And the “HR for time to events, dalcetrapib treatment arm versus placebo arm” value (rs12935810 genotype GG)?
**A.** 0.79

**Q.** What about the Predicted response (rs12935810 genotype GG) of the same compound?
**A.** R

**Q.** What about the “HR (95% CI) for time to events” value (rs13337675 AG vs AA) of the same compound?
**A.** 0.84 (0.68, 1.03)

**Q.** And the “HR (95% CI) for time to events” value (rs13337675 GG vs AA)?
**A.** 0.7 (0.43, 1.14)

**Q.** And the “HR for time to events, dalcetrapib treatment arm versus placebo arm” value (rs13337675 genotype AA)?
**A.** 1.07

**Q.** What about the Predicted response (rs13337675 genotype AA) of the same compound?
**A.** NR

**Q.** What about the “HR for time to events, dalcetrapib treatment arm versus placebo arm” value (rs13337675 genotype AG) of the same compound?
**A.** 0.89

**Q.** And the Predicted response (rs13337675 genotype AG)?
**A.** PR

**Q.** What about the “HR for time to events, dalcetrapib treatment arm versus placebo arm” value (rs13337675 genotype GG) of the same compound?
**A.** 1.03

**Q.** And the Predicted response (rs13337675 genotype GG)?
**A.** PR

**Q.** And the “HR (95% CI) for time to events” value (rs17136707 AG vs AA)?
**A.** 0.62 (0.47, 0.81)

**Q.** And the “HR (95% CI) for time to events” value (rs17136707 GG vs AA)?
**A.** 0.16 (0.02, 1.15)

**Q.** And the “HR for time to events, dalcetrapib treatment arm versus placebo arm” value (rs17136707 genotype AA)?
**A.** 1.06

**Q.** And the Predicted response (rs17136707 genotype AA)?
**A.** NR

**Q.** And the “HR for time to events, dalcetrapib treatment arm versus placebo arm” value (rs17136707 genotype AG)?
**A.** 0.8

**Q.** And the Predicted response (rs17136707 genotype AG)?
**A.** PR

**Q.** What about the “HR for time to events, dalcetrapib treatment arm versus placebo arm” value (rs17136707 genotype GG) of the same compound?
**A.** 0.37

**Q.** And the Predicted response (rs17136707 genotype GG)?
**A.** R

**Q.** What about the “HR (95% CI) for time to events” value (rs74702385 AA vs GG) of the same compound?
**A.** 0.14 (0.02, 1)

**Q.** What about the “HR (95% CI) for time to events” value (rs74702385 GA vs GG) of the same compound?
**A.** 0.63 (0.48, 0.83)

**Q.** What about the “HR for time to events, dalcetrapib treatment arm versus placebo arm” value (rs74702385 genotype AA) of the same compound?
**A.** 0.26

**Q.** What about the Predicted response (rs74702385 genotype AA) of the same compound?
**A.** R

**Q.** What about the “HR for time to events, dalcetrapib treatment arm versus placebo arm” value (rs74702385 genotype GA) of the same compound?
**A.** 0.84

**Q.** And the Predicted response (rs74702385 genotype GA)?
**A.** R

**Q.** And the “HR for time to events, dalcetrapib treatment arm versus placebo arm” value (rs74702385 genotype GG)?
**A.** 1.05

**Q.** What about the Predicted response (rs74702385 genotype GG) of the same compound?
**A.** NR

**Q.** What about the “HR (95% CI) for time to events” value (rs111590482 AG vs AA) of the same compound?
**A.** 0.64 (0.49, 0.84)

**Q.** What about the “HR (95% CI) for time to events” value (rs111590482 GG vs AA) of the same compound?
**A.** 0.15 (0.02, 1.1)

**Q.** And the “HR for time to events, dalcetrapib treatment arm versus placebo arm” value (rs111590482 genotype AA)?
**A.** 1.04

**Q.** What about the Predicted response (rs111590482 genotype AA) of the same compound?
**A.** NR

**Q.** And the “HR for time to events, dalcetrapib treatment arm versus placebo arm” value (rs111590482 genotype AG)?
**A.** 0.85

**Q.** What about the Predicted response (rs111590482 genotype AG) of the same compound?
**A.** R

**Q.** And the “HR for time to events, dalcetrapib treatment arm versus placebo arm” value (rs111590482 genotype GG)?
**A.** 0.26

**Q.** And the Predicted response (rs111590482 genotype GG)?
**A.** R
